# Reference: PMC4177084 (Journal of Thyroid Research, 2014)
# What was measured:
# FGFR3 = biological target: T1, FGFR3 (Homo sapiens, UniProt P22607); test: Cell free kinase inhibition assay; assay type: biochemical
# T1 construct: purchased Carna Biosciences, Inc. (Kobe, Japan)
# FGFR1 = biological target: T2, FGFR1 (Homo sapiens, UniProt P11362); test: Cell free kinase inhibition assay; assay type: biochemical
# T2 construct: purchased Carna Biosciences, Inc. (Kobe, Japan)
# FGFR3(K650E) = biological target: T3, FGFR3(K650E) (Homo sapiens, UniProt P22607, K650E); test: Cell free kinase inhibition assay; assay type: biochemical
# T3 construct: purchased Carna Biosciences, Inc. (Kobe, Japan)
# LCK = biological target: T4, LCK (Homo sapiens, UniProt P06239); test: Cell free kinase inhibition assay; assay type: biochemical
# T4 construct: purchased Carna Biosciences, Inc. (Kobe, Japan)
# MET = biological target: T5, MET (Homo sapiens, UniProt P08581); test: Cell free kinase inhibition assay; assay type: biochemical
# T5 construct: purchased Carna Biosciences, Inc. (Kobe, Japan)
# FGR = biological target: T6, FGR (Homo sapiens, UniProt P09769); test: Cell free kinase inhibition assay; assay type: biochemical
# T6 construct: purchased Carna Biosciences, Inc. (Kobe, Japan)
# CSK = biological target: T7, CSK (Homo sapiens, UniProt P41240); test: Cell free kinase inhibition assay; assay type: biochemical
# T7 construct: purchased Carna Biosciences, Inc. (Kobe, Japan)
# FLT3 = biological target: T8, FLT3 (Homo sapiens, UniProt P36888); test: Cell free kinase inhibition assay; assay type: biochemical
# T8 construct: purchased Carna Biosciences, Inc. (Kobe, Japan)
# EPHB3 = biological target: T9, EPHB3 (Homo sapiens, UniProt P54753); test: Cell free kinase inhibition assay; assay type: biochemical
# T9 construct: purchased Carna Biosciences, Inc. (Kobe, Japan)
# INSR = biological target: T10, INSR (Homo sapiens, UniProt P06213); test: Cell free kinase inhibition assay; assay type: biochemical
# T10 construct: purchased Carna Biosciences, Inc. (Kobe, Japan)
# KIT(D816V) = biological target: T11, KIT(D816V) (Homo sapiens, UniProt P10721, D816V); test: Cell free kinase inhibition assay; assay type: biochemical
# T11 construct: purchased Carna Biosciences, Inc. (Kobe, Japan)
# CDK6 = biological target: T12, CDK6 (Homo sapiens, UniProt Q00534); test: Cell free kinase inhibition assay; assay type: biochemical
# T12 construct: purchased Carna Biosciences, Inc. (Kobe, Japan)
# PIM1 = biological target: T13, PIM1 (Homo sapiens, UniProt P11309); test: Cell free kinase inhibition assay; assay type: biochemical
# T13 construct: purchased Carna Biosciences, Inc. (Kobe, Japan)
# SGK3 = biological target: T14, SGK3 (Homo sapiens, UniProt Q96BR1); test: Cell free kinase inhibition assay; assay type: biochemical
# T14 construct: purchased Carna Biosciences, Inc. (Kobe, Japan)
# RO82-W-1 cells = test: Antiproliferation assay (WST-8); assay type: cell-based, human; conditions: Homo sapiens, 72 h; RO82-W-1 (DTC), antiproliferative, 3 days
# FTC-238 cells = test: Antiproliferation assay (WST-8); assay type: cell-based, human; conditions: Homo sapiens, 72 h; FTC-238 (DTC), antiproliferative, 3 days
# 8505C cells = test: Antiproliferation assay (WST-8); assay type: cell-based; conditions: Homo sapiens, 72 h; 8505C (ATC), antiproliferative, 3 days
# KHM-5M cells = test: Antiproliferation assay (WST-8); assay type: cell-based; conditions: Homo sapiens, 72 h; KHM-5M (ATC), antiproliferative, 3 days
# HTC/C3 cells = test: Antiproliferation assay (WST-8); assay type: cell-based; conditions: Homo sapiens, 72 h; HTC/C3 (ATC), antiproliferative, 3 days
# VEGFR, FGFR, KIT, PDGFR = test: Cell free kinase inhibition assay, summary for RTKs; assay type: biochemical; conditions: PDGFR (Supplementary Table S1)
# Description: […]. Briefly, each test compound was mixed with enzyme, substrate, ATP, and Mg under appropriate buffer conditions for the ELISA or MSA. […] IC50 values (the half maximal inhibitory concentration) were calculated from concentrations versus % inhibition curves.
# KIF5B-RET (M918T) = biological target: T15, KIF5B-RET (M918T) (Homo sapiens, UniProt P07949+P33176, M918T); test: Western blot of RET phosphorylation in Nthy-ori 3-1 transfectants; assay type: cell-based; conditions: 1 h
# T15 construct: KIF5B N-terminal portion (fusion partner); expressed in transfected cells; host or cells: Nthy-ori 3-1 (human normal thyroid cells), plasmid pCLxIP KIF5B-RET M918T
# Source text: (§1) The human full-length KIF5B-RET gene was chemically synthesized by GenScript Corp. (Piscataway, NJ) and then amplified by polymerase chain reaction (PCR) using a primer set containing attB recombination sequences. ENTRY vectors for the Gateway cloning system (Life Technologies) were generated via the BP Clonase reaction using the PCR products and the plasmid pDONR221. The expression vector pCLxIP KIF5B-RET was generated via the LR Clonase reaction between each ENTRY vector and the destination vector pCLxIP-DEST [37]. Expression vectors for KIF5B-RET M918T were generated by introducing a point mutation into the pCLxIP KIF5B-RET expression vector.
# KIF5B-RET (wild-type) = biological target: T16, KIF5B-RET (wild-type) (Homo sapiens, UniProt P07949+P33176); test: as above; assay type: cell-based; conditions: 1 h
# T16 construct: KIF5B N-terminal portion (fusion partner); expressed in transfected cells; host or cells: Nthy-ori 3-1 (human normal thyroid cells), plasmid pCLxIP KIF5B-RET
# Source text: as §1
# RET (C634W) and ERK1/2 = test: Western blot of RET phosphorylation in TT cells; conditions: cultured TT cells, 1 h treatment
# RET = test: Western blot of RET phosphorylation in TT xenografts; conditions: 2 h after oral administration
# T4 sequence (P06239 whole entry): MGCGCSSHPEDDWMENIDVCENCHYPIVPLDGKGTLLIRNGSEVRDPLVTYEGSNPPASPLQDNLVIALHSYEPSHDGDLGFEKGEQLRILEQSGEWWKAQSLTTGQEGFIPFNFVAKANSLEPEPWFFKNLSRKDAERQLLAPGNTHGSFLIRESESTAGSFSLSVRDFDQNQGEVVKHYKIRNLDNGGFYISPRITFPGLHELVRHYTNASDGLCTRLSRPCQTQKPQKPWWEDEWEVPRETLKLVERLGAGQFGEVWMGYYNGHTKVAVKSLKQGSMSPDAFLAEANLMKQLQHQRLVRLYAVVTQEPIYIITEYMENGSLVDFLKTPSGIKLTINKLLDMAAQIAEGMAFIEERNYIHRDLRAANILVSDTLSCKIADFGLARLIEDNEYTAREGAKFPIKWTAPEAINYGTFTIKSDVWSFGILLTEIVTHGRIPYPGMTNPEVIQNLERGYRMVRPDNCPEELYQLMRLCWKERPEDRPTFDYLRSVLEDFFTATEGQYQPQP
# T16 sequence (P07949 713-1063 limits assumed, one chain of several): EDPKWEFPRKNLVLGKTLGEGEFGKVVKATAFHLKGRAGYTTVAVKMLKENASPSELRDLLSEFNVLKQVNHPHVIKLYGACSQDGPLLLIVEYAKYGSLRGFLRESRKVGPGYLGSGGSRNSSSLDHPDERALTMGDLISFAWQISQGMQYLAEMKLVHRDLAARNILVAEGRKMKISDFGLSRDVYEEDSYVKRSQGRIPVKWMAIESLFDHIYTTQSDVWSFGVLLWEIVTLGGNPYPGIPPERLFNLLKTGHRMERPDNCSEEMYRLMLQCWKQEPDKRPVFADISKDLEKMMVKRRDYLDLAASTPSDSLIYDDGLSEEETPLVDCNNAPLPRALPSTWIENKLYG
# T11 sequence (P10721 26-976 D816V): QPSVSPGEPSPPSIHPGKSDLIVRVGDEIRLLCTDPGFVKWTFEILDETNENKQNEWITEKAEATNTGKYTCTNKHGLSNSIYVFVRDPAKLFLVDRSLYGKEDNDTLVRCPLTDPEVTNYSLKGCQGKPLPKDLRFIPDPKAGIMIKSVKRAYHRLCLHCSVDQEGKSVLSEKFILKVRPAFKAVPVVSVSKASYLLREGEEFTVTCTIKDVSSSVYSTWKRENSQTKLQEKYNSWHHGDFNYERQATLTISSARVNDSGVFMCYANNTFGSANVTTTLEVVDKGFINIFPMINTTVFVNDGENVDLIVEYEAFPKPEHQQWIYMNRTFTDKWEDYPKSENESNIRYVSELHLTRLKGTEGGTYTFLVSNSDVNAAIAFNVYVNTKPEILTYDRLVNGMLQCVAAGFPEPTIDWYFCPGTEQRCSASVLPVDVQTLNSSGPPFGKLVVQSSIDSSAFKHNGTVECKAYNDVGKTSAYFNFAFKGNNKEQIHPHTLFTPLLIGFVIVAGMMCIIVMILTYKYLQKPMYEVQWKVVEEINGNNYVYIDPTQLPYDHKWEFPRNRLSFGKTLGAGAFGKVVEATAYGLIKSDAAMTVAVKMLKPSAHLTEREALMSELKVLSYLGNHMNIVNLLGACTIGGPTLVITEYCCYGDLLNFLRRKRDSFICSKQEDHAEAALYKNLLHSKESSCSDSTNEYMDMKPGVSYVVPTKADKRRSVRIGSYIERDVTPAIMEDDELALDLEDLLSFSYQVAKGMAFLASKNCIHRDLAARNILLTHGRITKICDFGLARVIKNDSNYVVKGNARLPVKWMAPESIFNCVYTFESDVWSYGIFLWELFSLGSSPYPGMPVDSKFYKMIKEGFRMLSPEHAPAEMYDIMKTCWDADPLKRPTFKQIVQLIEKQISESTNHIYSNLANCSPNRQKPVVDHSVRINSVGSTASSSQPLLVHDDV
# T2 sequence (P11362 22-822): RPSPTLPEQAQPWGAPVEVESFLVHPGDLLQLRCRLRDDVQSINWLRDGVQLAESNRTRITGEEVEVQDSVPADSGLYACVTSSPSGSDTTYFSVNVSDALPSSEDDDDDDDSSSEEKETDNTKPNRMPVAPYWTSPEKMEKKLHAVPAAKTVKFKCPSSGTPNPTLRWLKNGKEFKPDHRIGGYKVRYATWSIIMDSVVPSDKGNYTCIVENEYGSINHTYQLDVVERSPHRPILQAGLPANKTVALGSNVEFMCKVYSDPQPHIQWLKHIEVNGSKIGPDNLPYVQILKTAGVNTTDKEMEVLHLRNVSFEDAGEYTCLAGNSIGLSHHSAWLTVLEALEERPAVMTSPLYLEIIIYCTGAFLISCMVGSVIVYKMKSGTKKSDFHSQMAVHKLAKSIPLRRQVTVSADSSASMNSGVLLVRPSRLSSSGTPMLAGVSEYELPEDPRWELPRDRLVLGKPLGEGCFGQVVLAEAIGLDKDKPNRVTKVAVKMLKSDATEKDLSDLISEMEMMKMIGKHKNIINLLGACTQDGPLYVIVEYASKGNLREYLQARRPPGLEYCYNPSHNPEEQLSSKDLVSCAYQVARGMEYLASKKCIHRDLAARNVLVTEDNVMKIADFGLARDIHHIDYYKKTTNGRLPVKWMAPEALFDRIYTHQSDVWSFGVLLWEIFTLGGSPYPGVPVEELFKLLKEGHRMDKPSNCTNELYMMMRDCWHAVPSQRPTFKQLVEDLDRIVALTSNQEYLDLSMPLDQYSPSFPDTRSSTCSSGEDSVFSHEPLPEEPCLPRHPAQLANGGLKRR
# T3 sequence (P22607 23-806 K650E): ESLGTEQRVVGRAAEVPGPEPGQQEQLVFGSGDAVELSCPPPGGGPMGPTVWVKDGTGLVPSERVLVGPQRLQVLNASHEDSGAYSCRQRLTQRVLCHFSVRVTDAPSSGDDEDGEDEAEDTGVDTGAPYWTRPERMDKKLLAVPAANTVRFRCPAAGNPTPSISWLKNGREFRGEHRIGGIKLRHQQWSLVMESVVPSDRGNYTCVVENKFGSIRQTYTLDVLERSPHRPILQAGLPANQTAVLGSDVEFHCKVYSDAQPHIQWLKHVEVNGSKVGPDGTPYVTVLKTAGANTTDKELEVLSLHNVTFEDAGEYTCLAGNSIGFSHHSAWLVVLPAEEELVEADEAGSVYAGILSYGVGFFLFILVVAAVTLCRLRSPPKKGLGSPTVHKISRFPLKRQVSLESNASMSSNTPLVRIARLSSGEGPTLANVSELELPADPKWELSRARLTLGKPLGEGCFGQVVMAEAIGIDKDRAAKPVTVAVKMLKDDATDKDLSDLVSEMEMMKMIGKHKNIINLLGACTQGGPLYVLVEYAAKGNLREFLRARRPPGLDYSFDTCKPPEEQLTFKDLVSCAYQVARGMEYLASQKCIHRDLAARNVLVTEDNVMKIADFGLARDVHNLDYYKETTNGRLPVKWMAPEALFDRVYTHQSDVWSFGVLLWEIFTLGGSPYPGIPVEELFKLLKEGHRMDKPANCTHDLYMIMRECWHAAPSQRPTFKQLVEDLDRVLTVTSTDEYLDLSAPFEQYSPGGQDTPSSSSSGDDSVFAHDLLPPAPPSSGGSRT
# T10 sequence (P06213 28-1382): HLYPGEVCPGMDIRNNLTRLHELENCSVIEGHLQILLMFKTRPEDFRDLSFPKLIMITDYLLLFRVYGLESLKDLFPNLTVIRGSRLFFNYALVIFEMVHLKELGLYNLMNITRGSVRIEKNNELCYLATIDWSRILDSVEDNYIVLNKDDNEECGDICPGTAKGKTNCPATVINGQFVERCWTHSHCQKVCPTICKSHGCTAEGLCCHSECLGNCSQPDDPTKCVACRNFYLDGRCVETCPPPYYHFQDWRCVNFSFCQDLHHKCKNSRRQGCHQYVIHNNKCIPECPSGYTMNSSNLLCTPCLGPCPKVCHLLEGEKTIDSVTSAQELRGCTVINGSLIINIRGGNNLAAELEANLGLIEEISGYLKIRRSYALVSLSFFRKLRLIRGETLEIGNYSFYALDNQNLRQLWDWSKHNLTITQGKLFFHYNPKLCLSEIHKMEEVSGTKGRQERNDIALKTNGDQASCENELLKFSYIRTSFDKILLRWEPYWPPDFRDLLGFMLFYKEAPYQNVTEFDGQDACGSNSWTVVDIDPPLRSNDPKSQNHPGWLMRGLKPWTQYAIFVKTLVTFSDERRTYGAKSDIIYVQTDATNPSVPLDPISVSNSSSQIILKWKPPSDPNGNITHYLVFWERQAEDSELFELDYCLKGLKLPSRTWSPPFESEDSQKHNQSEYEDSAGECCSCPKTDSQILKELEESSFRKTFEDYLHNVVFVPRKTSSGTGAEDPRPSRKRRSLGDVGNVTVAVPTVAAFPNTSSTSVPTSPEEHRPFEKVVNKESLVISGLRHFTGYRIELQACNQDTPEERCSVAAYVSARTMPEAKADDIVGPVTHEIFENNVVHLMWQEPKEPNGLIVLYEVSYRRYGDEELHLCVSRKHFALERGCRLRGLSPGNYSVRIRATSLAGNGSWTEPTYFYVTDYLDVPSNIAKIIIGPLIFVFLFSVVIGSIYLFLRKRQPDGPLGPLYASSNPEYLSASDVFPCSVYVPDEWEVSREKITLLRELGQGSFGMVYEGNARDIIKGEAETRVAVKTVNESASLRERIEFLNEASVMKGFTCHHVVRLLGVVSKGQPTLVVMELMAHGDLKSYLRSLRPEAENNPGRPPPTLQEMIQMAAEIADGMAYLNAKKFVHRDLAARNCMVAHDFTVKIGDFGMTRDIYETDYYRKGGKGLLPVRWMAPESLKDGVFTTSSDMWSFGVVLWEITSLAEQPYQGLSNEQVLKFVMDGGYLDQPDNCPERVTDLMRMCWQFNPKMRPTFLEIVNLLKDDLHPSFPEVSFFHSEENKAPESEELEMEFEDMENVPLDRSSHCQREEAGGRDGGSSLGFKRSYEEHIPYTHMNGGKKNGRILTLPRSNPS
# T13 sequence (P11309 whole entry): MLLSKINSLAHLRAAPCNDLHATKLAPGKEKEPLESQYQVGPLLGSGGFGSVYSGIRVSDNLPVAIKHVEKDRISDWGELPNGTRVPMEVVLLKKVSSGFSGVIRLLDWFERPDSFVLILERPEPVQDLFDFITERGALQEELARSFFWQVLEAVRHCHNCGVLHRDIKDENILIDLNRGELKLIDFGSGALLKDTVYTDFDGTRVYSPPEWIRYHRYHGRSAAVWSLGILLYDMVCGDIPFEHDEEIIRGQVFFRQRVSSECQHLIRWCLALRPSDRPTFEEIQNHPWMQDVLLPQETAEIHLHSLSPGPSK
smiles,measurement,setting,value
"COc1cc2nccc(Oc3ccc(NC(=O)NC4CC4)c(Cl)c3)c2cc1C(N)=O [Lenvatinib, Lenvatinib mesilate]",IC50,FGFR3,0.052 µM
same,IC50,FGFR1,0.061 µM
same,IC50,FGFR3(K650E),0.11 µM
same,IC50,LCK,0.13 µM
same,IC50,MET,0.52 µM
same,IC50,FGR,0.91 µM
same,IC50,CSK,2.6 µM
same,IC50,FLT3,4.1 µM
same,IC50,EPHB3,> 10 µM
same,IC50,INSR,> 10 µM
same,IC50,KIT(D816V),> 10 µM
same,IC50,CDK6,> 10 µM
same,IC50,PIM1,> 10 µM
same,IC50,SGK3,> 10 µM
same,IC50,RO82-W-1 cells,3.8 µM
same,IC50,FTC-238 cells,18 µM
same,IC50,8505C cells,26 µM
same,IC50,KHM-5M cells,28 µM
same,IC50,HTC/C3 cells,28 µM
same,IC50,"VEGFR, FGFR, KIT, PDGFR",< 0.1 µM
same,phosphorylation of M918T mutant RET,KIF5B-RET (M918T),inhibited
same,phosphorylation of wild-type RET,KIF5B-RET (wild-type),inhibited
same,phosphorylation of RET and of ERK1/2,RET (C634W) and ERK1/2,inhibited
same,RET phosphorylation,RET,inhibition of RET phosphorylation
